Measurements from patent US6352703B1, “Compositions and methods for detecting and killing termites” (Board of Supervisors of Louisiana State University and …, priority 1997, dated 2002).

Assays:
[1] = test system: ants; test: Killing of ants; conditions: in vivo
[2] = test system: Mucor spp. fungus; test: Antifungal filter paper disk test, trial 3 (cornmeal agar, sealed plates, increased rates); assay type: cell-based
Procedure: A second trial was conducted with filter papers treated with naphthalene, BHT, or 2,6-di-t-butyl-4-methyl-phenol (“DBP”). A fungal suspension was prepared as in the first trial. Spore concentrations were determined with a counting chamber (Petroff-Hauser, Hauser Scientific Partnership, Horsham, Pa.). Concentrations were adjusted to approximately 10^7 spores/mL. In the first trial fungus grew on SDA quickly, forming a thick mat that soon filled the entire petri dish. […] A thin layer of the spore suspension was spread over the surface of each of 24 cornmeal agar plates using a turntable and bent glass rod, as previously described.
Filter paper disks were treated with naphthalene, BHT, or DBP at rates of 2 μg, 20 μg, or 200 μg, prepared as in the first trial. On each plate were placed four filter paper disks spaced equidistant from one another (one disk containing each of the three application rates of one of the test compounds, and one disk containing only the hexane control). Each plate was then covered and sealed with parafilm to reduce the release of volatile compounds. The concentration of naphthalene in the headspace was 0.04 μg/cm^3; except in trial 3 below, in which the concentration was 34.6 μg/cm^3, about 700 times the concentration we have observed in termite nest materials. […] The experiment was then repeated, increasing the rates of naphthalene, BHT, and DBP to 200 μg, 600 μg, and 1000 μg (trial 3).
(§1) Fungal growth on each filter paper disk was recorded by making tracings of the disks, inking in areas with visible fungal growth. The fraction of each disk covered by fungus was measured by making photocopy enlargements of these drawings, cutting out the enlarged disks, weighing the entire circle, cutting out the inked areas of the circle (corresponding to fungal growth), and weighing the latter. The fraction of each circle covered with fungus was then calculated as the ratio of these weights. (The weight of the photocopy toner was negligible.)
(§2) Coverage of filter paper disks was analyzed by the ANOVA procedure (SAS Institute, Version 6.11, Cary, N.C.). Tukey's Studentized Range (HSD) Test was used for comparison of mean separations (α=0.05).

[3] = test system: Mucor spp. fungus; test: Antifungal filter paper disk test, trial 2 (cornmeal agar, sealed plates); assay type: cell-based
Procedure: A second trial was conducted with filter papers treated with naphthalene, BHT, or 2,6-di-t-butyl-4-methyl-phenol (“DBP”). A fungal suspension was prepared as in the first trial. Spore concentrations were determined with a counting chamber (Petroff-Hauser, Hauser Scientific Partnership, Horsham, Pa.). Concentrations were adjusted to approximately 10^7 spores/mL. In the first trial fungus grew on SDA quickly, forming a thick mat that soon filled the entire petri dish. Therefore, in the second trial cornmeal agar (CMA, Difco Laboratories, Detroit, Mich.) was used to slow the growth of the fungus during the six-day observation period. A thin layer of the spore suspension was spread over the surface of each of 24 cornmeal agar plates using a turntable and bent glass rod, as previously described.
Filter paper disks were treated with naphthalene, BHT, or DBP at rates of 2 μg, 20 μg, or 200 μg, prepared as in the first trial. On each plate were placed four filter paper disks spaced equidistant from one another (one disk containing each of the three application rates of one of the test compounds, and one disk containing only the hexane control). Each plate was then covered and sealed with parafilm to reduce the release of volatile compounds. The concentration of naphthalene in the headspace was 0.04 μg/cm^3; except in trial 3 below, in which the concentration was 34.6 μg/cm^3, about 700 times the concentration we have observed in termite nest materials. The growth of fungus on and around each filter paper disk was recorded three, four, and five days after treatment. The experiment was then repeated, increasing the rates of naphthalene, BHT, and DBP to 200 μg, 600 μg, and 1000 μg (trial 3).
as §1, §2

[4] = test system: Mucor spp. fungus; test: Antifungal filter paper disk test, trial 1 (Sabouraud dextrose agar); assay type: cell-based
Procedure: Mucor was isolated from a Formosan termite nest in our laboratory, a nest originally collected from a cottonwood tree in New Orleans, La. The fungus comprised a white mat that covered large areas of the nest that had been exposed to air and water. Fungus was scraped from the nest and suspended in distilled, de-ionized water with a Pasteur pipette. This suspension was streaked on Sabouraud dextrose agar (“SDA”) (Difco Laboratories, Detroit, Mich.) in 100×15 mm plates containing 20 mL SDA. Pure cultures were obtained from individual colonies on these plates as needed. Cultures were maintained on SDA plates in a 27° C. incubator without light until used.
Filter paper disks (Whatman #1, 1.5 cm) were treated with naphthalene, butylated hydroxytoluene (BHT), dioctyl phthalate, or adipic dioctyl ester, at rates of 2 μg, 20 μg, or 200 μg, dissolved in 100 μL hexane. Controls were treated with hexane alone. For each treatment, just prior to testing for antifungal properties, 1 mL of the hexane solution and ten filter paper disks were placed in a vial, and N2 was used to evaporate the hexane.
A suspension was prepared by scraping Mucor conidia (spores) from the culture plates, and mixing into distilled, deionized water with a Pasteur pipette. A thin layer of this suspension was spread over the surface of each of 130 SDA plates by placing each plate onto an inoculation turntable (Fisher Scientific, Hampton, N.H.), pipetting 0.2 mL of the suspension into the center of the plate, spinning the turntable, and spreading the suspension onto the agar with a bent glass rod. The plates were allowed to dry for two hours. A treated filter paper disk was then placed in the center of each plate (10 plates/treatment), and the plates were incubated at 27° C. The extent to which each filter paper disk was covered by fungus was determined by visual inspection (by the method described in greater detail below) after four, five, and six days.
as §1, §2

[5] = trial 3, 0 μg disk (hexane only) on the same sealed plate as the compound's treated disks
[6] = trial 2, 0 μg disk (hexane only) on the same sealed plate as the compound's treated disks

SMILES: Cc1cc(C(C)(C)C)c(O)c(C(C)(C)C)c1 [BHT, butylated hydroxytoluene]
- Effectiveness at killing ants compared with naphthalene [1]: even more effective than naphthalene at killing ants
- Fraction Covered, Day 3 (mean percentage of filter paper disk surface covered by fungus) [2, 5]: 59%
- Fraction Covered, Day 4 (mean percentage of filter paper disk surface covered by fungus) [2, 5]: 100%
- Fraction Covered, Day 5 (mean percentage of filter paper disk surface covered by fungus) [2, 5]: 100%
- Fungal coverage of treated disks ([2]; trial 3, fourth day): ~100%
- Fraction Covered, Day 3 (mean percentage of filter paper disk surface covered by fungus) ([2]; trial 3, rate 200 μg per disk): 30%
- Fraction Covered, Day 4 (mean percentage of filter paper disk surface covered by fungus) ([2]; trial 3, rate 200 μg per disk): 96%
- Fraction Covered, Day 5 (mean percentage of filter paper disk surface covered by fungus) ([2]; trial 3, rate 200 μg per disk): 95%
- Fraction Covered, Day 3 (mean percentage of filter paper disk surface covered by fungus) ([2]; trial 3, rate 600 μg per disk): 53%
- Fraction Covered, Day 4 (mean percentage of filter paper disk surface covered by fungus) ([2]; trial 3, rate 600 μg per disk): 97%
- Fraction Covered, Day 5 (mean percentage of filter paper disk surface covered by fungus) ([2]; trial 3, rate 600 μg per disk): 100%
- Fraction Covered, Day 3 (mean percentage of filter paper disk surface covered by fungus) ([2]; trial 3, rate 1000 μg per disk): 16%
- Fraction Covered, Day 4 (mean percentage of filter paper disk surface covered by fungus) ([2]; trial 3, rate 1000 μg per disk): 99%
- Fraction Covered, Day 5 (mean percentage of filter paper disk surface covered by fungus) ([2]; trial 3, rate 1000 μg per disk): 100%
- Coverage of filter paper versus the DBP or naphthalene treatments ([2]; trial 3, three days after treatment, P=0.0001): significantly greater
- Fraction Covered, Day 3 (mean percentage of filter paper disk surface covered by fungus) [3, 6]: 93%
- Fraction Covered, Day 4 (mean percentage of filter paper disk surface covered by fungus) [3, 6]: 94%
- Fraction Covered, Day 5 (mean percentage of filter paper disk surface covered by fungus) [3, 6]: 96%
- Fraction Covered, Day 3 (mean percentage of filter paper disk surface covered by fungus) ([3]; trial 2, rate 2 μg per disk): 85%
- Fraction Covered, Day 4 (mean percentage of filter paper disk surface covered by fungus) ([3]; trial 2, rate 2 μg per disk): 90%
- Fraction Covered, Day 5 (mean percentage of filter paper disk surface covered by fungus) ([3]; trial 2, rate 2 μg per disk): 90%
- Fraction Covered, Day 3 (mean percentage of filter paper disk surface covered by fungus) ([3]; trial 2, rate 20 μg per disk): 93%
- Fraction Covered, Day 4 (mean percentage of filter paper disk surface covered by fungus) ([3]; trial 2, rate 20 μg per disk): 95%
- Fraction Covered, Day 5 (mean percentage of filter paper disk surface covered by fungus) ([3]; trial 2, rate 20 μg per disk): 98%
- Fraction Covered, Day 3 (mean percentage of filter paper disk surface covered by fungus) ([3]; trial 2, rate 200 μg per disk): 95%
- Fraction Covered, Day 4 (mean percentage of filter paper disk surface covered by fungus) ([3]; trial 2, rate 200 μg per disk): 99%
- Fraction Covered, Day 5 (mean percentage of filter paper disk surface covered by fungus) ([3]; trial 2, rate 200 μg per disk): 100%
- Fraction Covered, Day 4 (mean percentage of filter paper disk surface covered by fungus) ([4]; trial 1, rate 2 μg per disk): 70%
- Fraction Covered, Day 5 (mean percentage of filter paper disk surface covered by fungus) ([4]; trial 1, rate 2 μg per disk): 85%
- Fraction covered, Day 6 (mean percentage of filter paper disk surface covered by fungus) ([4]; trial 1, rate 2 μg per disk): 92%
- Fraction Covered, Day 4 (mean percentage of filter paper disk surface covered by fungus) ([4]; trial 1, rate 20 μg per disk): 27%
- Fraction Covered, Day 5 (mean percentage of filter paper disk surface covered by fungus) ([4]; trial 1, rate 20 μg per disk): 65%
- Fraction covered, Day 6 (mean percentage of filter paper disk surface covered by fungus) ([4]; trial 1, rate 20 μg per disk): 76%
- Fraction Covered, Day 4 (mean percentage of filter paper disk surface covered by fungus) ([4]; trial 1, rate 200 μg per disk): 28%
- Fraction Covered, Day 5 (mean percentage of filter paper disk surface covered by fungus) ([4]; trial 1, rate 200 μg per disk): 56%
- Fraction covered, Day 6 (mean percentage of filter paper disk surface covered by fungus) ([4]; trial 1, rate 200 μg per disk): 93%
